Assay results taken from patent publication US20190337910A1, “ALLOSTERIC MODULATORS OF NICOTINIC ACETYLCHOLINE RECEPTORS” (MERCK SHARP & DOHME CORP., priority 2016, published 2019).
Like-named read-outs stand apart in the source and are kept apart here.

Target: T1, human α7 nAChR stably expressed in a HEK cell line (with human RIC-3) (Homo sapiens, UniProt P36544)
T1 construct: PrecisION hnAChR α7/RIC-3 (product name; no catalogue number given)
Assay: Automated patch-clamp electrophysiology functional assay (Assay A), IonFlux HT, whole-cell population patch
Type: cell-based
Procedure: The α7 nAChR positive allosteric modulator (PAM) activity of the present compounds may be tested using assays known in the art. The α7 nAChR PAMs described herein have activities in an automated patch-clamp electrophysiology functional assay as described in the examples. The assay was performed using the IonFlux HT in a whole-cell, population patch configuration. See Golden et al. Assay Drug Dev. Technol. (2011) 9:608-619. The compounds were assessed for their ability to modulate the function of the human α7 nAChR stably expressed in a HEK cell line both in the presence, and in the absence of the natural α7 agonist acetylcholine. By performing a series of such measurements at different concentrations, the effective concentration of the α7 nAChR PAMs (EC50) was determined. See Spencer et al. Assay Drug Dev. Technol. (2012) 10:313-324.
Direct activation of α7 (agonism), and potentiation of acetylcholine-evoked α7 currents was determined as follows:
Automated Patch-Clamp Electrophysiology Functional Assay (Assay A)
Automated patch-clamp electrophysiology was performed using the IonFlux HT (Fluxion Biosciences Inc., San Francisco, Calif.) in the whole-cell, population patch configuration. Test compounds were assessed for their ability to modulate the function of the α7 nicotinic acetylcholine receptor both in the presence, and in the absence of the natural α7 agonist acetylcholine. A HEK cell line stably expressing both human RIC-3 and human α7 (PrecisION hnAChR α7/RIC-3, Eurofins Pharma, St. Charles, Mo.) was cultured in 175 cm^2 triple-layer tissue culture flasks to no more than 90% confluency in DMEM/F-12 growth media supplemented with 10% heat-inactivated fetal bovine serum, 1% non-essential amino acids, 0.625 μg/mL Puromycin, and 400 μg/mL Geneticin. Immediately prior to assay, cells were detached by first aspirating growth media, rinsing with Dulbecco's phosphate buffered saline, and then adding 10 mL of Accutase (Innovative Cell Technologies, San Diego, Calif.) to the flask and then incubating at 37° C. for 5 minutes. Detached cells were then recovered by the addition of 40 mL of CHO-serum-free media supplemented with 25 mM HEPES, and rocked gently in a 50 mL conical tube for 20 minutes prior to patch-clamp assay. After recovery, cells were pelleted by centrifugation at 1,000 RPM for 1 minute in a compact bench top centrifuge; recovery media was aspirated and cells were resuspended in external recording solution (150 mM NaCl, 5 mM KCl, 2 mM CaCl2, 1 mM MgCl2, 10 mM HEPES, 12 mM dextrose) to a density of 5.0×10^6 cells/mL. The cell suspension was added to the cell inlet wells on an IonFlux HT population patch plate which had previously been rinsed and primed with deionized H2O. Test compounds were serially diluted in DMSO and then resuspended to the final test concentration in external recording solution, with, or without 40 μM acetylcholine added to the external recording solution; test compounds were then transferred to the IonFlux HT population patch plate. Internal recording solution (110 mM TrisPO4, 28 mM TrisBase, 0.1 mM CaCl2, 2 mM MgCl2, 11 mM EGTA, 4 mM MgATP) was added to the internal recording solution inlet wells on the IonFlux HT patch plate previously loaded with cells and test compounds, and the plate loaded into the IonFlux HT instrument. A protocol was executed on the IonFlux HT to trap the cells, break into the cells, and establish the whole-cell recording configuration; cells were voltage-clamped at a holding potential of −60 mV for the duration of the experiment, all experiments were conducted at room temperature, and the IonFlux HT injection pressure was 8 psi for solution applications. Upon establishing the whole-cell configuration, external recording solution was perfused into the recording chambers for 120 seconds and then 40 μM acetylcholine was applied for 1 second and immediately washed off with external recording solution for 60 seconds. […]

[1] = HEK cell line stably expressing human α7 and human RIC-3, 40 μM acetylcholine, holding potential −60 mV, room temperature, read-out: α7 nAChR EC50
[2] = automated patch-clamp electrophysiology functional assay (Assay A), potency class by EC50, read-out: α7 nAChR Potency

T1 sequence (P36544 23-502): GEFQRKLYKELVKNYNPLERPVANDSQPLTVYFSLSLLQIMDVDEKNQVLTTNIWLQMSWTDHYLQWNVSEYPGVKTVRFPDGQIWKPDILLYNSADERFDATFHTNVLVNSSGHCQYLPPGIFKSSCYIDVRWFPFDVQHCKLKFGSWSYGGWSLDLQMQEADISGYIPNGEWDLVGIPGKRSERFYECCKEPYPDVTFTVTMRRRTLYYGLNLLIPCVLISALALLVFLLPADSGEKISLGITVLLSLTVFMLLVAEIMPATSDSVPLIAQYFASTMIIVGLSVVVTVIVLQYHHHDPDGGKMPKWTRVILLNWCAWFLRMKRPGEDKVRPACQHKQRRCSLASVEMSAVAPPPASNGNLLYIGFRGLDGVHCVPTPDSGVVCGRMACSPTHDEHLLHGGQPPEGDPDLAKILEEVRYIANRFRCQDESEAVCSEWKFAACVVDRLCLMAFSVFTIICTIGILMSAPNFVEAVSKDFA

Row | EC50 [1] [nM] | EC50 [2] [nM] | Compound
1 | – | 500 to 5000 | NS(=O)(=O)c1ccc(C2C(c3cnc(-c4ccccc4)o3)C2(F)F)cc1 (racemic) [Example M1]
2 | 140 | 100 to 500 | NS(=O)(=O)c1ccc(C2C(c3nc(-c4ccccc4)no3)C2(Cl)Cl)cc1 (racemic) [Example M9]
3 | – | 5000 to 50000 | Cc1cc(C2C(c3nc(-c4ccccc4)no3)C2(C)C)ccc1S(N)(=O)=O (single isomer, unassigned) [Example M8]
4 | 4300 | 500 to 5000 | Cc1cc(S(N)(=O)=O)ccc1[C@H]1C(c2nc(-c3ccccc3)no2)C1(C)C (single isomer, unassigned; enantiomer a) [Example 38, 4-[trans-2,2-Dimethyl-3-(3-phenyl-1,2,4-oxadiazol-5-yl)cyclopropyl]-3-methylbenzenesulfonamide, enantiomer A]
5 | 1700 | 500 to 5000 | CC1(C)[C@H](c2ccc(S(N)(=O)=O)cc2)[C@H]1c1nc(-c2ccc(F)cc2C(F)(F)F)no1 [Example A2]
6 | – | 100 to 500 | Cc1cccc(F)c1-c1noc([C@@H]2C[C@H]2c2ccc(S(N)(=O)=O)cc2)n1 [Example C11]
7 | 6900 | 5000 to 50000 | CC1(c2nc(-c3ccc(F)cc3F)no2)CC1c1ccc(S(N)(=O)=O)cc1 (centres unmarked) [Example E3]
8 | 1700 | 500 to 5000 | CC1(c2ccc(S(N)(=O)=O)cc2)CC1c1nc(-c2ccc(F)cc2F)no1 (centres unmarked) [Example E4]
9 | – | 500 to 5000 | CC1(C)[C@H](c2ccc(S(N)(=O)=O)cc2)[C@H]1c1nnc(C2CCCCC2)s1 [Example F7]
10 | – | ≤ 100 | CC(Oc1cccc(Cl)c1)c1nc(C2C(c3ccc(S(N)(=O)=O)cc3)C2(C)C)no1 (centres unmarked) [Example I2]
11 | 450 | – | CC1(C)[C@@H](c2ccc(S(N)(=O)=O)cc2)[C@@H]1c1noc(-c2ccncc2C(F)(F)F)n1 [Example I20]
12 | – | 500 to 5000 | CC1(C)[C@H](c2ccc(S(N)(=O)=O)cc2)[C@H]1c1nc(C2CC2)co1 [Example J5]
13 | 1600 | 500 to 5000 | CC1(C)[C@@H](c2ccc(S(N)(=O)=O)cc2)[C@@H]1c1nc(-c2cc(F)ccc2F)co1 [Example K2]
14 | 3900 | 500 to 5000 | CC1(C)[C@@H](c2ccc(S(N)(=O)=O)cc2)[C@@H]1c1nc(-c2cccc(F)c2)cs1 [Example K10]
15 | 1100 | 500 to 5000 | CC(C)c1csc([C@H]2[C@H](c3ccc(S(N)(=O)=O)cc3)C2(C)C)n1 [Example K11]
16 | – | 100 to 500 | NS(=O)(=O)c1ccc([C@@H]2C[C@H]2c2ncc(C3CCCC3)s2)cc1 [Example K15]

Row | Compound | EC50 [1] [nM] | EC50 [2] [nM]
17 | 4-{(1S,3S)-3-[2-(3-Fluorophenyl)-1-methyl-1H-imidazol-4-yl]-2,2-dimethylcycloproyl}benzenesulfonamide [Example 35] | 4400 | 500 to 5000
